Series [1] addresses von Hippel-Lindau disease tumor suppressor/Nuclear receptor subfamily 1 group I member 2 (Homo sapiens, UniProt O75469+P40337). The series can be described thus: PROTAC activity at N-terminal PXR/VHL in human SNU-C4 HiBiT-PXR KI cell assessed as reduction in PXR protein level incubated for 24 hrs by Western blot analysis. Type of series: cell-based. For orientation: The HiBiT peptide binds its large partner to form an active luciferase.

A short description of series [2]: Cytotoxicity against human SNU-C4 HiBiT-PXR KI cell assessed as cell viability incubated for 72 hrs by celltiter-glo luminescent assay. The class given is functional.
The nature of series [3]: Cytotoxicity against human SNU-C4 HiBiT-PXR KI cell assessed as cell viability incubated for 24 hrs by celltiter-glo luminescent assay. Type of series: functional.
Series [4] is described as follows: Cytotoxicity against human SNU-C4 HiBiT-PXR KI cell assessed as cell viability at 30 uM incubated for 72 hrs by celltiter-glo luminescent assay relative to control. The class given is functional. The note with it: read-out: Activity.
The nature of series [5]: Cytotoxicity against human SNU-C4 HiBiT-PXR KI cell assessed as cell viability at 30 uM incubated for 24 hrs by celltiter-glo luminescent assay relative to control. Type of series: functional. The settings on record: read-out: Activity.
Series [6] addresses T1, Nuclear receptor subfamily 1 group I member 2 (Homo sapiens, UniProt O75469).
T1 sequence (O75469 whole entry): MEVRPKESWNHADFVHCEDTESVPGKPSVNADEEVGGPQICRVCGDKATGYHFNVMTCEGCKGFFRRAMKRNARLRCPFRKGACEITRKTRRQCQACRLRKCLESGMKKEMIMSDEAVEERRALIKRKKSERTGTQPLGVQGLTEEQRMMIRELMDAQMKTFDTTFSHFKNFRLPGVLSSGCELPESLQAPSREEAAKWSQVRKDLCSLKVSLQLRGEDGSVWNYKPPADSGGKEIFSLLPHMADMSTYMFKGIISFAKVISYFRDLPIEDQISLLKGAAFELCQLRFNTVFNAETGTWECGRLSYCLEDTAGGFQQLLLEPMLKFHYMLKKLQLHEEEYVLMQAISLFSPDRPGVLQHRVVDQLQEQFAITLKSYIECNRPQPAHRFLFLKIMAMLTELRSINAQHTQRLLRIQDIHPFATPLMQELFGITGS
The series can be described thus: Displacement of BODIPY FL-probe from GST-tagged PXR LBD (unknown origin) incubated for 90 mins by TR-FRET assay. (TR-FRET usually uses a lanthanide donor and a delayed reading to cut background.)

von Hippel-Lindau disease tumor suppressor/Nuclear receptor subfamily 1 group I member 2, sequence (P40337 whole entry, one chain of several): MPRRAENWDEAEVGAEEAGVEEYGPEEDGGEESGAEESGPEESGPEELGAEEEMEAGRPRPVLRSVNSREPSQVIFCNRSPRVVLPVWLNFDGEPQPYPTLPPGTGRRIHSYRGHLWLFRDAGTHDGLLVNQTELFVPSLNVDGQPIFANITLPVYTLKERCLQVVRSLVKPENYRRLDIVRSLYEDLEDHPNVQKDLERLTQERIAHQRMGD

As to `COc1cc(OCCCCCCOCCOCCOCCOCCOCCOCC(=O)N[C@H](C(=O)N2C[C@H](O)C[C@H]2C(=O)NCc2ccc(-c3scnc3C)cc2)C(C)(C)C)c(C)cc1-n1nnc(S(=O)(=O)c2ccc(C(C)(C)C)cc2)c1C`, in series [1], the DC50 was > 30 µM. The half-maximal cytotoxic concentration (CC50) in series [2] and in series [3] was > 30 µM in each case.

As to `COc1cc(OCCOCCOCCC(=O)N[C@H](C(=O)N2C[C@H](O)C[C@H]2C(=O)NCc2ccc(-c3scnc3C)cc2)C(C)(C)C)c(C)cc1-n1nnc(S(=O)(=O)c2ccc(C(C)(C)C)cc2)c1C`, in series [4], the viability at 30 µM was 98.9%. Also, the DC50 in series [1] is > 30 µM. Besides, the CC50 in series [2] and in series [3] was > 30 µM in each case.

As for `CCCCOc1ccc(C(C)(C)C)cc1NC(=O)c1nnn(-c2cc(C)c(OCCCCCCOCCOCC(=O)N[C@H](C(=O)N3C[C@H](O)C[C@H]3C(=O)NCc3ccc(-c4scnc4C)cc3)C(C)(C)C)cc2OC)c1C`, the viability at 30 µM in series [5] turned out to be 96.7%; in series [4], 91.2%. For the same compound, the CC50 in series [2] and in series [3] was > 30 µM each time.

As to `CCC[C@H](CC)Oc1ccc(C(=O)NCCOCCOCC(=O)N[C@H](C(=O)N2C[C@H](O)C[C@H]2C(=O)NCc2ccc(-c3scnc3C)cc2)C(C)(C)C)cc1NC(=O)c1nnn(-c2cc(OC)ccc2OC)c1C`, the viability at 30 µM was 103% in series [5] and 89.7% in series [4]. Besides, the DC50 in series [1] was > 30 µM. Moreover, the CC50 in series [2] and in series [3] was > 30 µM each time.

In the case of `CCC[C@H](CC)Oc1ccc(C(=O)NCCCCC(=O)N[C@H](C(=O)N2C[C@H](O)C[C@H]2C(=O)NCc2ccc(-c3scnc3C)cc2)C(C)(C)C)cc1NC(=O)c1nnn(-c2cc(OC)ccc2OC)c1C`, the viability at 30 µM turned out to be 101% in series [5] and 98.9% in series [4]. For the same compound, the DC50 in series [1] was > 30 µM. Further, the CC50 in series [2] and in series [3] was > 30 µM in each case.

Turning to `COc1cc(OCC(=O)N[C@H](C(=O)N2C[C@H](O)C[C@H]2C(=O)NCc2ccc(-c3scnc3C)cc2)C(C)(C)C)c(C)cc1-n1nnc(S(=O)(=O)c2ccc(C(C)(C)C)cc2)c1C`, the DC50 in series [1] is > 30 µM. Moreover, the cytotoxic concentration (CC50) in series [2] and in series [3] was > 30 µM throughout.

With `COc1cc(OCCOCCOCCOCCOCCOCCC(=O)N[C@H](C(=O)N2C[C@H](O)C[C@H]2C(=O)NCc2ccc(-c3scnc3C)cc2)C(C)(C)C)c(C)cc1-n1nnc(S(=O)(=O)c2ccc(C(C)(C)C)cc2)c1C`, in series [1], the DC50 is > 30 µM. The cytotoxic concentration (CC50) in series [2] and in series [3] was > 30 µM throughout.

For the compound `COc1cc(OCCCC(=O)N[C@H](C(=O)N2C[C@H](O)C[C@H]2C(=O)NCc2ccc(-c3scnc3C)cc2)C(C)(C)C)c(C)cc1-n1nnc(S(=O)(=O)c2ccc(C(C)(C)C)cc2)c1C`, in series [4], the viability at 30 µM is 95.4%. Also, the DC50 in series [1] is > 30 µM. In addition, the 50% cytotoxic concentration (CC50) in series [2] and in series [3] was > 30 µM throughout.

As for `CCC[C@H](CC)Oc1ccc(C(=O)NCCOCCOCCOCCOCC(=O)N[C@H](C(=O)N2C[C@H](O)C[C@H]2C(=O)NCc2ccc(-c3scnc3C)cc2)C(C)(C)C)cc1NC(=O)c1nnn(-c2cc(OC)ccc2OC)c1C`, the viability at 30 µM in series [5] was found to be 100%; in series [4], 84.1%. In series [1], the DC50 is > 30 µM. The CC50 in series [2] and in series [3] was > 30 µM in each case.

With `CCC[C@H](CC)Oc1ccc(C(=O)NCCCCCCCCC(=O)N[C@H](C(=O)N2C[C@H](O)C[C@H]2C(=O)NCc2ccc(-c3scnc3C)cc2)C(C)(C)C)cc1NC(=O)c1nnn(-c2cc(OC)ccc2OC)c1C`, the viability at 30 µM in series [5] turned out to be 102%; in series [4], 104%. Moreover, the DC50 in series [1] was > 30 µM. Also, the CC50 in series [2] and in series [3] was > 30 µM throughout.

For the compound `COc1cc(OCCOCCC(=O)N[C@H](C(=O)N2C[C@H](O)C[C@H]2C(=O)NCc2ccc(-c3scnc3C)cc2)C(C)(C)C)c(C)cc1-n1nnc(S(=O)(=O)c2ccc(C(C)(C)C)cc2)c1C`, the DC50 in series [1] was > 30 µM. In addition, the half-maximal cytotoxic concentration (CC50) in series [2] and in series [3] was > 30 µM in each case.

`COc1cc(OCCOCCOCCOCCC(=O)N[C@H](C(=O)N2C[C@H](O)C[C@H]2C(=O)NCc2ccc(-c3scnc3C)cc2)C(C)(C)C)c(C)cc1-n1nnc(S(=O)(=O)c2ccc(C(C)(C)C)cc2)c1C`: the DC50 in series [1] was > 30 µM. Also, the CC50 in series [2] and in series [3] was > 30 µM in each case.

Regarding `COc1cc(OCCCCCCOCCOCCOCCCCCC(=O)N[C@H](C(=O)N2C[C@H](O)C[C@H]2C(=O)NCc2ccc(-c3scnc3C)cc2)C(C)(C)C)c(C)cc1-n1nnc(S(=O)(=O)c2ccc(C(C)(C)C)cc2)c1C`, in series [1], the DC50 was > 30 µM. The 50% cytotoxic concentration (CC50) in series [2] and in series [3] was > 30 µM each time.

`COc1ccc(OC)c(-n2nnc(C(=O)Nc3cc(OCCCCCCOCCOCC(=O)N[C@H](C(=O)N4C[C@H](O)C[C@H]4C(=O)NCc4ccc(-c5scnc5C)cc4)C(C)(C)C)cc(C(C)(C)C)c3)c2C)c1`: the viability at 30 µM in series [5] turned out to be 83.2%; in series [4], 68.2%. For the same compound, the CC50 in series [2] and in series [3] was > 30 µM in each case.

As to `CCC[C@H](CC)Oc1ccc(C(C)(C)C)cc1NC(=O)c1nnn(-c2cc(C)c(OC)cc2OC)c1C`, the viability at 30 µM in series [5] was 99.3%; in series [4], 106%. Also, the DC50 in series [1] is > 30 µM. Moreover, the CC50 in series [2] and in series [3] was > 30 µM in each case.

`CCC[C@H](CC)Oc1ccc(C(=O)OC)cc1NC(=O)c1nnn(-c2cc(OC)ccc2OC)c1C`: the figures for the viability at 30 µM in series [5] and in series [4] were 95.6% and 94.9%, respectively. The outcome in series [6] was Active. Moreover, in series [1], the DC50 is > 30 µM. For the same compound, the half-maximal cytotoxic concentration (CC50) in series [2] and in series [3] was > 30 µM in each case.

`COc1cc(OCCOCCOCCOCCOCCC(=O)N[C@H](C(=O)N2C[C@H](O)C[C@H]2C(=O)NCc2ccc(-c3scnc3C)cc2)C(C)(C)C)c(C)cc1-n1nnc(S(=O)(=O)c2ccc(C(C)(C)C)cc2)c1C`: in series [1], the DC50 is > 30 µM. For the same compound, the CC50 in series [2] and in series [3] was > 30 µM throughout.

Take `COc1cc(OCCCCCCCC(=O)N[C@H](C(=O)N2C[C@H](O)C[C@H]2C(=O)NCc2ccc(-c3scnc3C)cc2)C(C)(C)C)c(C)cc1-n1nnc(S(=O)(=O)c2ccc(C(C)(C)C)cc2)c1C`: the DC50 in series [1] is > 30 µM. Also, the CC50 in series [2] and in series [3] was > 30 µM in each case.

In the case of `CCC[C@H](CC)Oc1ccc(C(=O)NCCOCCOCCOCC(=O)N[C@H](C(=O)N2C[C@H](O)C[C@H]2C(=O)NCc2ccc(-c3scnc3C)cc2)C(C)(C)C)cc1NC(=O)c1nnn(-c2cc(OC)ccc2OC)c1C`, the viability at 30 µM in series [5] was determined as 98.3%; in series [4] it was 89.1%. In series [1], the DC50 is > 30 µM. Further, the CC50 in series [2] and in series [3] was > 30 µM in each case.

`COc1cc(OCC(=O)NCCOCCOCCOCCOCC(=O)N[C@H](C(=O)N2C[C@H](O)C[C@H]2C(=O)NCc2ccc(-c3scnc3C)cc2)C(C)(C)C)c(C)cc1-n1nnc(S(=O)(=O)c2ccc(C(C)(C)C)cc2)c1C`: in series [1], the DC50 is > 30 µM. Also, the CC50 in series [2] and in series [3] was > 30 µM throughout.

Take `COc1cc(OCCCCCCOCCOCC(=O)N[C@H](C(=O)N2C[C@H](O)C[C@H]2C(=O)NCc2ccc(-c3scnc3C)cc2)C(C)(C)C)c(C)cc1-n1nnc(S(=O)(=O)c2ccc(C(C)(C)C)cc2)c1C`: the 50% cytotoxic concentration (CC50) in series [2] and in series [3] was > 30 µM each time.

With `CCC[C@H](CC)Oc1ccc(C(C)(C)C)cc1NC(=O)c1nnn(-c2cc(C)c(OCCCCCCOCCOCC(=O)N[C@H](C(=O)N3C[C@H](O)C[C@H]3C(=O)NCc3ccc(-c4scnc4C)cc3)C(C)(C)C)cc2OC)c1C`, the viability at 30 µM was found to be 93.9% in series [5] and 104% in series [4]. Further, the CC50 in series [2] and in series [3] was > 30 µM in each case.

For the compound `CCC[C@H](CC)Oc1ccc(C(=O)N[C@H](C(=O)N2C[C@H](O)C[C@H]2C(=O)NCc2ccc(-c3scnc3C)cc2)C(C)(C)C)cc1NC(=O)c1nnn(-c2cc(OC)ccc2OC)c1C`, the viability at 30 µM in series [5] came out at 99.9%; in series [4], 101%. Further, in series [1], the DC50 is > 30 µM. Also, the CC50 in series [2] and in series [3] was > 30 µM each time.

Regarding `CCC[C@H](CC)Oc1ccc(C(C)(C)C)cc1NC(=O)c1nnn(-c2cc(OC)ccc2OC)c1C`, the viability at 30 µM in series [5] stood at 95.7%; in series [4], 98.7%. Besides, the DC50 in series [1] is > 30 µM. The CC50 in series [2] and in series [3] was > 30 µM each time.

With `CC(=O)N[C@H](C(=O)N1C[C@H](O)C[C@H]1C(=O)NCc1ccc(-c2scnc2C)cc1)C(C)(C)C`, the viability at 30 µM in series [5] was 99.6%; in series [4], 93%. The CC50 in series [2] and in series [3] was > 30 µM throughout.

As to `COc1cc(OCCCCCCOCCCCCOCCCCCC(=O)N[C@H](C(=O)N2C[C@H](O)C[C@H]2C(=O)NCc2ccc(-c3scnc3C)cc2)C(C)(C)C)c(C)cc1-n1nnc(S(=O)(=O)c2ccc(C(C)(C)C)cc2)c1C`, the viability at 30 µM in series [4] worked out at 94.3%. Moreover, the CC50 in series [2] and in series [3] was > 30 µM each time.

For the origin of these results see ChEMBL document CHEMBL6127111, “First-in-Class Small Molecule Degrader of Pregnane X Receptor Enhances Chemotherapy Efficacy” (J Med Chem, 2024).
